We go through two compounds from US12241085B2, “Human pluripotent stem cell derived neurodegenerative disease models on a microfluidic chip” (priority 2018, dated 2025).

For series [1] the following is noted: as stated for the marketed drug; cited from earlier work.
The subject of series [2] is iBMECs co-cultured with primary human astrocytes and pericytes. The series is described as follows: TNFα perfusion of blood compartment of organ-chip with iBMECs, astrocytes and pericytes. Particulars: 10 or 100 ng/ml overnight in blood compartment. The class given is cell-based. From the text:
While astrocytes and iBMECs can remain in their respective channels, astrocytes processes protruded through the pores to form direct cell-to-cell contact with the iBMECs, mimicking the astrocyte-end-feet observed in vivo.
In order to quantify the percentage of vascular surface covered with astrocyte protrusions (end-feet like structures), the vascular surface of the are washed in DMEM (without FBS) and stained with the fluorescently labeled wheat germ agglutinin (WGA-647 Invitrogen), a […] able to bind to the vascular glycocalyx (DOI: 10.1002jemt.22602). After 15 minutes at room temperature, chips were rinsed twice with fresh DMEM, fixed in 2% PFA for 20 minutes at room temperature and stained for the astrocyte marker GFAP (Abcam). Following incubation with the anti-mouse secondary antibody (Invitrogen, Alexa Fluor 488) and HOECHS (Abcam) chips were washed in PBS and imaged via confocal microscopy (Zeiss LSM850).
The area underneath the porous membrane was localized using the WGA-647 signal (that stained the whole endothelial surface) and the nuclear fluorescence signal (HOECHST) of endothelial cells. Then, five random areas of each chip were imaged using the GFAP fluorescent (488) signal using a 10× objective (Zeiss). ImageJ software was used to subtract background and then convert the digital signal detected in the GFAP channel into a binary image. Finally, percentage of signal coverage was computed from the binary image as the ratio of bright pixels to the total number of pixels in the image. Image processing and quantification was performed with an automatic macro compiled in ImageJ in order to ensure unbiased signal measurements. Numerical values were collected and statistically analyzed using Graphpad Prism V7.

With `CC[C@@H](C(N)=O)N1CCCC1=O` [Levetiracetam], the “known BBB permeability” value in series [1] is “can efficiently penetrate the BBB”.
Regarding TNFα, the “blood-to-brain leakage of dextran after vascular stimulation” value in series [2] is “increase in blood-to-brain leakage”. Besides, in series [2] (vs control), the “astrocyte end-feet-like structures covering the vascular surface” value is reported as “decrease in end-feet-like structures” and the astrocyte morphology entry is reported as “change in astrocyte morphology”.
